According to PubChem BioAssay (NCI):
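Method: 48-hour compound exposure of cells in 96-well plates, five concentrations, linear interpolation of endpoints. Definition used: TGI = concentration required for complete inhibition of growth.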

What was measured:
Test in all cases: inhibition of tumour cell growth, NCI panel, 48 h
CCRF-CEM leukemia = tested on: CCRF-CEM leukemia
M19-MEL melanoma = tested on: M19-MEL melanoma
A549 NSCLC = tested on: A549 NSCLC
EKVX NSCLC = tested on: EKVX NSCLC
SK-OV-3 ovarian = tested on: SK-OV-3 ovarian
RPMI-8226 leukemia = tested on: RPMI-8226 leukemia
HT29 colon = tested on: HT29 colon
RXF 393 renal = tested on: RXF 393 renal
SK-MEL-5 melanoma = tested on: SK-MEL-5 melanoma
LOX IMVI melanoma = tested on: LOX IMVI melanoma
HOP-18 NSCLC = tested on: HOP-18 NSCLC
SW-620 colon = tested on: SW-620 colon
TK-10 renal = tested on: TK-10 renal
DLD-1 colon = tested on: DLD-1 colon
ACHN renal = tested on: ACHN renal
UACC-257 melanoma = tested on: UACC-257 melanoma
K-562 leukemia = tested on: K-562 leukemia
HL-60(TB) leukemia = tested on: HL-60(TB) leukemia
UO-31 renal = tested on: UO-31 renal
OVCAR-8 ovarian = tested on: OVCAR-8 ovarian
NCI-H23 lung = tested on: NCI-H23 lung
IGROV1 ovarian = tested on: IGROV1 ovarian
HOP-92 NSCLC = tested on: HOP-92 NSCLC
M14 melanoma = tested on: M14 melanoma
COLO 205 colon = tested on: COLO 205 colon
RXF-631 renal = tested on: RXF-631 renal
MOLT-4 leukemia = tested on: MOLT-4 leukemia
786-0 renal = tested on: 786-0 renal
SF-295 CNS = tested on: SF-295 CNS
OVCAR-4 ovarian = tested on: OVCAR-4 ovarian
SF-539 CNS = tested on: SF-539 CNS
OVCAR-3 ovarian = tested on: OVCAR-3 ovarian
NCI-H226 lung = tested on: NCI-H226 lung
LXFL 529 NSCLC = tested on: LXFL 529 NSCLC
HCT-15 colon = tested on: HCT-15 colon
DMS 273 small cell lung = tested on: DMS 273 small cell lung
OVCAR-5 ovarian = tested on: OVCAR-5 ovarian
MALME-3M melanoma = tested on: MALME-3M melanoma
SK-MEL-2 melanoma = tested on: SK-MEL-2 melanoma
SNB-19 CNS = tested on: SNB-19 CNS
NCI-H460 lung = tested on: NCI-H460 lung
XF 498 CNS = tested on: XF 498 CNS
SN12C renal = tested on: SN12C renal
NCI-H522 lung = tested on: NCI-H522 lung
CAKI-1 renal = tested on: CAKI-1 renal
U251 CNS = tested on: U251 CNS
KM20L2 colon = tested on: KM20L2 colon
UACC-62 melanoma = tested on: UACC-62 melanoma
KM12 colon = tested on: KM12 colon
A498 renal = tested on: A498 renal
SK-MEL-28 melanoma = tested on: SK-MEL-28 melanoma
HCT-116 colon = tested on: HCT-116 colon
SNB-75 CNS = tested on: SNB-75 CNS
HOP-62 NSCLC = tested on: HOP-62 NSCLC
HCC-2998 colon = tested on: HCC-2998 colon
SR leukemia = tested on: SR leukemia
SF-268 CNS = tested on: SF-268 CNS
DMS 114 small cell lung = tested on: DMS 114 small cell lung
SNB-78 CNS = tested on: SNB-78 CNS

Measured: TGI

COc1ccc(N(CC(=O)O)S(=O)(=O)c2ccccc2)cc1
not listed: SK-MEL-28 melanoma | HCT-116 colon | SNB-75 CNS | HOP-62 NSCLC | HCC-2998 colon | SR leukemia | SF-268 CNS | DMS 114 small cell lung | SNB-78 CNS
> 100 µM: all other assays above

COC(=O)c1sc(=O)n(-c2ccccc2)c1SCc1ccccc1
not listed: CAKI-1 renal | A498 renal | SF-268 CNS | DMS 114 small cell lung | SNB-78 CNS
> 100 µM: all other assays above

OCC(CO)C1c2cccc3ccc4cccc1c4c23
not listed: LXFL 529 NSCLC | HCT-15 colon | NCI-H522 lung | HCC-2998 colon
> 100 µM: all other assays above
